Assays:
IM cells = assay: Preliminary data on differentiation of IM cells at different RA / AGN193109 concentrations; format: cell-based; conditions: higher concentrations of AGN193109
[1] = system: human iPSC line CRL1502 (clone#C32); assay: RA signaling control of A-P fate patterning of the IM (RA or AGN193109 with FGF9, monolayer differentiation, immunofluorescence); format: cell-based; conditions: day 18
Description: (§1) All experiments presented used the previously described wildtype human iPSC line CRL1502 (clone#C32) generated using episomal reprogramming^28. Undifferentiated human iPSCs were maintained on the mouse embryonic fibroblasts (MEFs) (Millipore) as a feeder layer with human ES cell (hES) medium as described previously^1. Cells were authenticated and tested for the mycoplasma infection^28. Human iPSCs were plated on a Matrigel-coated (Millipore) culture dish and cultured in MEF-conditioned hES medium (MEF-CM) until reaching to 60-100% confluent. Then, cells were again plated on a Matrigel-coated at 5,000 cells/cm^2 in MEF-CM. Next day, cells reached to 40-50% of confluent, cells were treated with 8 μM of CHIR99021 in APEL basal medium ([…] Technologies) supplemented with Antibiotic-Antimycotic (Life Technologies) for 2-5 days, followed by FGF9 (200 ng mL^−1) and Heparin (1 μg mL^−1) for another […], with changing medium every second day. At day 7, cells were collected and dissociated into single cells using Trypsin or TrypLE select (Life Technologies). Cells (0.5×10^6) were spun down at ×400 g for 2 min to form a pellet and then transferred onto a Transwell 0.4 μm pore polyester membrane (#CLS3450 Corning). Pellets were treated with 5 μM of CHIR99021 in APEL for 1 h, and then cultured with FGF9 (200 ng mL^−1) and Heparin (1 μg mL^−1) for 5 days, followed by another 6-13 days in APEL basal medium, with changing medium three times a week. Culture medium should not exceed above a membrane. For the differentiation in monolayer cultures, cells post CHIR99021 induction were treated by FGF9 (200 ng mL^−1) and Heparin (1 μg mL^−1) for 10 days, followed by APEL basal medium for another 6 days. In some experiments, RA (0.1 μM) or AGN193109 (5 μM) were added to FGF9 medium. A step-by step protocol describing kidney organoid generation was provided in Example 1.
For monolayer cells, antibody staining was performed as described previously^1. For the kidney organoid, organoids were fixed with 2% paraformaldehyde in PBS for 20 min at 4° C. followed by 3 times wash with PBS. […]

[2] = system: human iPSC line CRL1502 (clone#C32); assay: Duration of initial Wnt signaling (CHIR99021) prior to FGF9: AI/PI markers by qPCR and immunofluorescence; format: cell-based
Description: as §1
For monolayer cells, antibody staining was performed as described previously^1. For the kidney organoid, organoids were fixed with 2% paraformaldehyde in PBS for 20 min at 4° C. followed by 3 times wash with PBS. Then organoids were blocked with 10% donkey serum, 0.3% Triton X/PBS for 2-3 h at room temperature and incubated with primary antibodies overnight at 4° C. After 5 times washing with 0.1% Triton X/PBS. secondary antibodies were incubated for 4 h at room temperature. The following antibodies and dilutions were used: rabbit anti-PAX2 (1:300, #71-6,000, Zymed Laboratories), goat anti-SIX1 (1:300, #sc-9709, Santa Cruz Biotechnology), rabbit anti-SIX2 (1:300, #11562-1-AP, Proteintech), mouse anti-ECAD (1:300, #610181. BD Biosciences), rabbit anti-WT1 (1:100, #sc-192, Santa Cruz Biotechnology), mouse anti-HOXD11 (1:300, #SAB1403944, Sigma-Aldrich), goat anti-GATA3 (1:300, AF2605, R&D Systems). rabbit anti-JAG1 (1:300, #ab7771, Abcam), goat anti-Cubilin (1:150, #sc-20607. Santa Cruz Biotechnology), sheep anti-NPHS1 (1:300, AF4269, R&D Systems), LTL-biotin-conjugated (1:300, B-1325, Vector Laboratories), DBA-biotin-conjugated (1:300, B-1035, Vector Laboratories), mouse anti-KRT8 (1:300, #TROMA, DSHB), mouse anti-CD31 (1:300, #555444, BD Pharmingen), rabbit anti-KDR (1:300, #2479, Cell Signaling Technology), goat anti-SOX17 (1:300, #AF1924, R&D Systems), rabbit anti-NG2 (1:300, #AB5320, Merck Millipore), rabbit anti-SMA (1:300, #ab15267. Abcam), mouse anti-PDGFRA (1:200, #556001. BD Pharmingen), rabbit anti-Laminin (1:300, #L9393, Sigma-Aldrich), rabbit anti-UMOD (1:300, #BT-590, Biomedical Technologies), mouse anti-MEIS1 (1:300, #ATM39795, activemotif), goat anti-FOXD1 (1:200, #sc-47585, Santa Cruz Biotechnology) and rabbit anti-cleaved-CASP3 (1:300, #9661, Cell Signaling Technology). Images were taken using a Nikon Ti-U microscope or a Zeiss LSM 780 confocal microscope. All immunofluorescence analyses were successfully repeated more than three times and representative images are shown. […]

kidney organoids = assay: Regulation of nephrogenesis in the kidney organoid (CHIR99021 pulse, FGF9); format: cell-based, human
Description: as §1, with “Pellets were treated with 5 μM of CHIR99021 in APEL for 1 h, and then cultured with FGF9 (200 ng mL^−1) and Heparin (1 μg mL^−1) for 5 days, followed by another 6-13 days in APEL basal medium, with changing medium three times a week.” left out

[3] = longer duration of CHIR99021, day 7
[4] = shorter duration of CHIR99021, day 7

Row | SMILES | proportion of metanephric mesenchyme cells (IM cells) | AI specification of early migrating cells ([1]; 3 days CHIR99021 followed by FGF9 + AGN) | induction of the MM lineage ([1]; AGN193109 (5 μM) with FGF9 after CHIR99021, monolayer) | UE induction (GATA3+PAX2+ECAD+) ([1]; RA (0.1 μM) or AGN193109 (5 μM) with FGF9 after CHIR99021, monolayer) | UE induction (GATA3+PAX2+ECAD+) ([2]; fewer days in CHIR, after 18 days of culture) | induction of UE and MM in monolayer culture ([2]; initial 4 days of CHIR99021) | expression of the PSM markers TBX6 and T (qPCR) ([2]; longer days in CHIR99021) | induction of MM (PAX2+ECAD−) and its derivatives (PAX2+ECAD+) ([2]; longer days in CHIR, after 18 days of culture) | PI markers HOXD11 and EYA1 (qPCR) ([2]; longer days of 8 μM CHIR99021, day 7) | AI (GATA3) by immunofluorescence [2, 3] | PI (HOXD11) by immunofluorescence [2, 3] | AI (GATA3) by immunofluorescence [2, 4] | PI (HOXD11) by immunofluorescence [2, 4] | AI markers LHX1 and GATA3 (qPCR) ([2]; shorter period of 8 μM CHIR99021, day 7) | nephrogenesis in organoids (kidney organoids; 5 μM CHIR99021 for 1 h immediately post aggregation vs no pulse) | formation of aggregates (kidney organoids; 45 minute pulse of high CHIR (5 μM) immediately upon reaggregation) | maximal nephron number per organoid (kidney organoids; pulse of CHIR99021 for one hour after forming a pellet)
1 | Cc1ccc(C2=CCC(C)(C)c3ccc(C#Cc4ccc(C(=O)O)cc4)cc32)cc1 [AGN193109] | relative increase | inhibited | enhanced | inhibited | – | – | – | – | – | – | – | – | – | – | – | – | –
2 | Cc1c[nH]c(-c2cnc(NCCNc3ccc(C#N)cn3)nc2-c2ccc(Cl)cc2Cl)n1 [CHIR99021] | – | – | – | – | dominant UE induction | induction of both the UE and MM | Prolonged expression | preferential induction of MM | increased | less | more | more | less | induced | promoted nephrogenesis | enhanced | required

Reference: US12134785B2, “Differentiation of pluripotent stem cells to form renal organoids” (The University of Queensland, priority 2014, dated 2024)
